Experiments:
K-562 = experiment: NCI in vitro anticancer SRB assay, K-562; type: cell-based, human; settings: Homo sapiens, K562, K-562, Leukemia
Experimental: (§1) Anticancer activity: In vitro biological activity studies were carried out at the National Cancer Institute (USA).
(§2) The compounds 5a-b evaluated for in vitro anticancer activity against sixty human tumour cells derived from nine cancer types (leukemia, non-small-cell lung, colon, CNS, melanoma, ovarian, prostate, and breast cancer) as shown in Table 1. For each compound, dose response curves for each cell line were measured at a minimum of five concentrations at 10 fold dilutions. A protocol of 48 h continuous drug exposure was used and a sulforhodamine B (SRB) protein assay was used to estimate cell viability or growth. The concentration causing 50% cell growth inhibition (GI50), total cell growth inhibition (TGI 0% growth) and 50% cell death (LC50, −50% growth) compared with the control was calculated. […] The MG MID of log TGI and log LC50 have shown similar pattern to the log GI50 MG MID. The other compounds 9a-c evaluated for in vitro one dose anticancer activity against nine human tumor cell panels containing sixty cell lines in percent growth inhibition values are listed in Table 3.

EKVX = experiment: NCI in vitro anticancer SRB assay, EKVX; type: cell-based, human; settings: Homo sapiens, Non-Small Cell Lung Cancer
Experimental: as §1, §2

NCI-H322M = experiment: NCI in vitro anticancer SRB assay, NCI-H322M; type: cell-based, human; settings: Homo sapiens, Non-Small Cell Lung Cancer
Experimental: as §1, §2

HCT-116 = experiment: NCI in vitro anticancer SRB assay, HCT-116; type: cell-based, human; settings: Homo sapiens, HCT-116, Colon Cancer
Experimental: as §1, §2

KM12 = experiment: NCI in vitro anticancer SRB assay, KM12; type: cell-based, human; settings: Homo sapiens, KM12, Colon Cancer
Experimental: as §1, §2

SW-620 = experiment: NCI in vitro anticancer SRB assay, SW-620; type: cell-based, human; settings: Homo sapiens, SW-620, Colon Cancer
Experimental: as §1, §2

SF-539 = experiment: NCI in vitro anticancer SRB assay, SF-539; type: cell-based, human; settings: Homo sapiens, SF-539, CNS Cancer
Experimental: as §1, §2

SNB-75 = experiment: NCI in vitro anticancer SRB assay, SNB-75; type: cell-based; settings: Homo sapiens, SNB-75, CNS Cancer
Experimental: as §1, §2

U251 = experiment: NCI in vitro anticancer SRB assay, U251; type: cell-based, human; settings: Homo sapiens, U-251, U251, CNS Cancer
Experimental: as §1, §2

MALME-3M = experiment: NCI in vitro anticancer SRB assay, MALME-3M; type: cell-based, human; settings: Homo sapiens, Melanoma
Experimental: as §1, §2

SK-MEL-28 = experiment: NCI in vitro anticancer SRB assay, SK-MEL-28; type: cell-based, human; settings: Homo sapiens, SK-MEL-28, Melanoma
Experimental: as §1, §2

SK-MEL-5 = experiment: NCI in vitro anticancer SRB assay, SK-MEL-5; type: cell-based, human; settings: Homo sapiens, SK-MEL-5, Melanoma
Experimental: as §1, §2

OVCAR-4 = experiment: NCI in vitro anticancer SRB assay, OVCAR-4; type: cell-based, human; settings: Homo sapiens, OVCAR-4, Ovarian Cancer
Experimental: as §1, §2

786-0 = experiment: NCI in vitro anticancer SRB assay, 786-0; type: cell-based, human; settings: Homo sapiens, 786-0, Renal Cancer
Experimental: as §1, §2

RXF 393 = experiment: NCI in vitro anticancer SRB assay, RXF 393; type: cell-based, human; settings: Homo sapiens; RXF 393, Renal Cancer; repeat test values
Experimental: as §1, §2

DU 145 = experiment: NCI in vitro anticancer SRB assay, DU 145; type: cell-based, human; settings: Homo sapiens, DU 145, Prostate Cancer
Experimental: as §1, §2

MCF7 = experiment: NCI in vitro anticancer SRB assay, MCF7; type: cell-based, human; settings: Homo sapiens, MCF7, Breast Cancer
Experimental: as §1, §2

MDA-MB-231/ATCC = experiment: NCI in vitro anticancer SRB assay, MDA-MB-231/ATCC; type: cell-based, human; settings: Homo sapiens, Breast Cancer
Experimental: as §1, §2

HS 578T = experiment: NCI in vitro anticancer SRB assay, HS 578T; type: cell-based, human; settings: Homo sapiens, Breast Cancer
Experimental: as §1, §2

T-47D = experiment: NCI in vitro anticancer SRB assay, T-47D; type: cell-based, human; settings: Homo sapiens, T47D, Breast Cancer
Experimental: as §1, §2

BT-549 = experiment: NCI in vitro anticancer SRB assay, BT-549; type: cell-based, human; settings: Homo sapiens; BT-549, Breast Cancer; repeat test values
Experimental: as §1, §2

sixty human tumour cells = experiment: In vitro cytotoxicity, mean graph midpoints over all cell lines; type: cell-based; settings: mean graph midpoint
Experimental: as §1, §2

## CN1CCN(c2ccc3nc(-c4ccc(OCCCN5C(=O)c6cccc7cccc(c67)C5=O)cc4)[nH]c3c2)CC1 [Compound 5a, 2-{3-[4-(6-[4-methylpiperazino]2-benzimidazolyl)phenoxy]propyl}napthalimide]
K-562; 48 h drug exposure, SRB
  GI50: 490 nM
K-562; repeat test values
  GI50: 1580 nM
EKVX; 48 h drug exposure, SRB
  GI50: 1370 nM
EKVX; repeat test values
  GI50: 1830 nM
NCI-H322M; 48 h drug exposure, SRB
  GI50: 1810 nM
NCI-H322M; repeat test values
  GI50: 1640 nM
HCT-116; 48 h drug exposure, SRB
  GI50: 1760 nM
HCT-116; repeat test values
  GI50: 1640 nM
KM12; 48 h drug exposure, SRB
  GI50: 1720 nM
KM12; repeat test values
  GI50: 2030 nM
SW-620; 48 h drug exposure, SRB
  GI50: 1700 nM
SW-620; repeat test values
  GI50: 1830 nM
SF-539; 48 h drug exposure, SRB
  GI50: 1640 nM
SF-539; repeat test values
  GI50: 1860 nM
SNB-75; 48 h drug exposure, SRB
  GI50: 20 nM
SNB-75; repeat test values
  GI50: 1770 nM
U251; 48 h drug exposure, SRB
  GI50: 1780 nM
U251; repeat test values
  GI50: 1970 nM
MALME-3M; 48 h drug exposure, SRB
  GI50: 7660 nM
MALME-3M; repeat test values
  GI50: 2560 nM
SK-MEL-28; 48 h drug exposure, SRB
  GI50: 1480 nM
SK-MEL-28; repeat test values
  GI50: 1800 nM
SK-MEL-5; 48 h drug exposure, SRB
  GI50: 1690 nM
SK-MEL-5; repeat test values
  GI50: 1600 nM
OVCAR-4; 48 h drug exposure, SRB
  GI50: 1580 nM
OVCAR-4; repeat test values
  GI50: 1850 nM
786-0; 48 h drug exposure, SRB
  GI50: 1530 nM
786-0; repeat test values
  GI50: 1740 nM
RXF 393
  GI50: 10000 nM
DU 145; 48 h drug exposure, SRB
  GI50: 1450 nM
DU 145; repeat test values
  GI50: 1740 nM
MCF7; 48 h drug exposure, SRB
  GI50: 1440 nM
MCF7; repeat test values
  GI50: 1500 nM
MDA-MB-231/ATCC; 48 h drug exposure, SRB
  GI50: 1510 nM
MDA-MB-231/ATCC; repeat test values
  GI50: 1410 nM
HS 578T; 48 h drug exposure, SRB
  GI50: 2100 nM
HS 578T; repeat test values
  GI50: 2110 nM
T-47D; 48 h drug exposure, SRB
  GI50: 1540 nM
T-47D; repeat test values
  GI50: 2660 nM
BT-549
  GI50: 4800 nM
Sixty human tumour cells; log10 of drug concentration causing 50% cell death (−50%)
  Log LC50 MG MID: −4.20
Sixty human tumour cells; log10 of drug concentration causing total cell growth inhibition (0% growth)
  Log TGI MG MID: −4.80
Sixty human tumour cells; log10 of drug molar concentration causing 50% cell growth inhibition
  Log GI50 MG MID: −5.34
Sixty human tumour cells; repeated test values
  Log GI50 MG MID: −5.62
  Log LC50 MG MID: −4.39
  Log TGI MG MID: −5.08

Reference: patent US8288387B2, “Napthalimide-benzimidazole hybrids as potential antitumor agents and process for the preparation thereof” (Council of Scientific & Industrial Research, priority 2008, dated 2012)
